This passage reports GI50 results from US10059717B2, “Urea compounds containing 3,4-dihydropyrimido[4,5-D]pyrimidin-2(1H)-one skeleton as protein kinase inhibitors” (KOREA INSTITUTE OF SCIENCE AND TECHNOLOGY, priority 2016, dated 2018).

Assay [1] addresses T1, GCK (Homo sapiens, UniProt Q12851).
T1 sequence (Q12851 1-820): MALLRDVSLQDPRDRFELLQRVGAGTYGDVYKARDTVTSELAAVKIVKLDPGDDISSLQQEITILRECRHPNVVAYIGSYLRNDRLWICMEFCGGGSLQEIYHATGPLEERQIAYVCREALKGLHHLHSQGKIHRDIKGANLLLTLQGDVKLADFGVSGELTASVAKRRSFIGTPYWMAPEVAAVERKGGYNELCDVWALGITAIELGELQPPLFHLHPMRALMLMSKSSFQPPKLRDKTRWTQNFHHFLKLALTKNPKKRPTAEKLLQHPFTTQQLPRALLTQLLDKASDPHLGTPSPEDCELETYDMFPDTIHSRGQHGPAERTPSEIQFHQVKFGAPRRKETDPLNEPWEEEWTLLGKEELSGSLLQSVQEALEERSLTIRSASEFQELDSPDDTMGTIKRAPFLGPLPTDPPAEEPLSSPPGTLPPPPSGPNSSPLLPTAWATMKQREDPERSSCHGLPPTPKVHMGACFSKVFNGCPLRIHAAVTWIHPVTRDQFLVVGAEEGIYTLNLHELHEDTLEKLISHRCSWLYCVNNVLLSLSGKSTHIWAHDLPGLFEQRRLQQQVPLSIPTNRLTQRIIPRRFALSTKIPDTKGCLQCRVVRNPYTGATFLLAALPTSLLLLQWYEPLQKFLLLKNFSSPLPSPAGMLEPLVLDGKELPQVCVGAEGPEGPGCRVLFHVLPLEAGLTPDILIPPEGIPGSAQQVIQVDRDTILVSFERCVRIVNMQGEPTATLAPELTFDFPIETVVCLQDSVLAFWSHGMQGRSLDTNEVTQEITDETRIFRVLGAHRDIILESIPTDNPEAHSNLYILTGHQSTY
Description: GCK kinase inhibitory activity. Type of assay: biochemical. The conditions noted are these: read-out: Kinase inhibitory efficacy, GI50 GCK. The protocol: (§1) GI50 values were calculated by measuring the inhibitory efficacy of the compounds of the present invention against both GCK and ACK1 kinases.

The test system of assay [2] is Ba/F3 (N-Ras G12D). Put plainly: Proliferation inhibitory activity, Ba/F3. Format: cell-based. The conditions noted are these: Mus musculus, BaF3; Ba/F3 (N-Ras G12D) cell line; read-out: Proliferation inhibitory efficacy (GI50, μM) Ba/F3 (N-Ras G12D). The protocol: (§2) GI50 values were calculated by measuring the proliferation inhibitory efficacy of the compounds of the present invention on mt-NRAS (G12D) Ba/F3, U937 (wt-NRAS) and OCI-AML3 (mt-NRAS) cell lines.

For assay [3], the system named is OCI-AML3 (N-Ras Q61L). Put plainly: Proliferation inhibitory activity, OCI-AML3. Format: cell-based. The note with it: Homo sapiens, OCI-AML-3; OCI-AML3 (N-Ras Q61L) cell line; read-out: Proliferation inhibitory efficacy (GI50, μM) OCI-AML3 (N-Ras Q61L). The protocol: as §2
Accordingly, the compounds of the present invention are particularly effective as a therapeutic agent for acute myelogenous leukemia (AML).

For assay [4], the target named is ACK1 (Homo sapiens, UniProt Q07912). Description: ACK1 kinase inhibitory activity. Format: biochemical. The conditions noted are these: read-out: Kinase inhibitory efficacy, GI50 ACK1. How it is done:
as §1

For assay [5], the system named is U937 (N-Ras WT). Description: Proliferation inhibitory activity, U937. Type of assay: cell-based. The conditions noted are these: Homo sapiens, U-937; U937 (N-Ras WT) cell line; read-out: Proliferation inhibitory efficacy (GI50, μM) U937 (N-Ras WT). How it is done:
as §2

ACK1, sequence (Q07912 whole entry): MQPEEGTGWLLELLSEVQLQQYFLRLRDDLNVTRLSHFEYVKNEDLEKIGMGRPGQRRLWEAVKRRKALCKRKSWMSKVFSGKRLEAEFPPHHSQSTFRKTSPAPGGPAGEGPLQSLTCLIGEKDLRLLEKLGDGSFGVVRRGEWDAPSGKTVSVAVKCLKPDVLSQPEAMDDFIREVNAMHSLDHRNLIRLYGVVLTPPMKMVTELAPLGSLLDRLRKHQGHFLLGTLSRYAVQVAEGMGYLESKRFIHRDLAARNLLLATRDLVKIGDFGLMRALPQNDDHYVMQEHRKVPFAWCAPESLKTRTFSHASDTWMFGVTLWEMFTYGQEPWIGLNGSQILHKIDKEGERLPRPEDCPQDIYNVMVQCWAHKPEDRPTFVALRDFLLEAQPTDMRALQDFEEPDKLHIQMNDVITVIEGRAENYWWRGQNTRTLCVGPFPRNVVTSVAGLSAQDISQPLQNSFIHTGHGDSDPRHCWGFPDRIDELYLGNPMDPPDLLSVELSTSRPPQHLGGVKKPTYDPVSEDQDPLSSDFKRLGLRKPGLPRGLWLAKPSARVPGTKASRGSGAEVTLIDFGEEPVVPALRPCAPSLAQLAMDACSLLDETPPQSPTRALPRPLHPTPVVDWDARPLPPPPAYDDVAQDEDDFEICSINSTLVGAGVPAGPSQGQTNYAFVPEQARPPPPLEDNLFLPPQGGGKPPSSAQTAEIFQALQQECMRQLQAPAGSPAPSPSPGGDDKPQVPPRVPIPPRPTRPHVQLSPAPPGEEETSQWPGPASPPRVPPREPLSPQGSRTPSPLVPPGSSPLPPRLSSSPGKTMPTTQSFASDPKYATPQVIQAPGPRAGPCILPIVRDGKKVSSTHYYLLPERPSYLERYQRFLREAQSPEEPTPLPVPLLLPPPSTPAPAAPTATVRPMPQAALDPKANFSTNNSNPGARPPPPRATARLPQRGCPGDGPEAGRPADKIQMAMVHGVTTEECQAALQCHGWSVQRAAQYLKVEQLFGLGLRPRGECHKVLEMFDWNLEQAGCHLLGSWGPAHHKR

For the compound `Cc1ccc(Nc2ncc3c(n2)N(C)C(=O)N(c2cc(NC(=O)Nc4cccc(C(F)(F)F)c4)ccc2C)C3)cn1` [Compound No. 7, 1-(4-methyl-3-(1-methyl-7-((6-methylpyridin-3-yl)amino)-2-oxo-1,4-dihydropyrimido[4,5-d]pyrimidin-3(2H)-yl)phenyl)-3-(3-(trifluoromethyl)phenyl)urea], the GI50 was 100 to 300 nM in assay [1]; below 0.5 µM in assay [2]; 0.5 to 3 µM in assay [3]; below 30 nM in assay [4]; at least 5 µM in assay [5].

As for `Cc1ccc(Nc2ncc3c(n2)N(C)C(=O)N(c2cc(NC(=O)Nc4ccccc4C)ccc2C)C3)cn1` [Compound No. 5, 1-(4-methyl-3-(1-methyl-7-((6-methylpyridin-3-yl)amino)-2-oxo-1,4-dihydropyrimido[4,5-d]pyrimidin-3(2H)-yl)phenyl)-3-(o-tolyl)urea], the GI50 in assay [1] is 100 to 300 nM; in assay [2], 0.5 to 3 µM; in assay [3], 0.5 to 3 µM; in assay [4], below 30 nM; in assay [5], at least 5 µM.

`COc1ccccc1NC(=O)Nc1ccc(C)c(N2Cc3cnc(Nc4ccc(C(=O)NC5CC5)nc4)nc3N(C)C2=O)c1` [Compound No. 16, N-cyclopropyl-5-((6-(5-(3-(2-methoxyphenyl)ureido)-2-methylphenyl)-8-methyl-7-oxo-5,6,7,8-tetrahydropyrimido[4,5-d]pyrimidin-2-yl)amino)picolinamide]: the GI50 in assay [1] was 100 to 300 nM; in assay [2] it was below 0.5 µM; in assay [3] it was below 0.5 µM; in assay [4], below 30 nM; in assay [5], at least 5 µM.

Regarding `CNC(=O)c1ccc(Nc2ncc3c(n2)N(C)C(=O)N(c2cc(NC(=O)Nc4ccccc4OC)ccc2C)C3)cn1` [Compound No. 15], the GI50 in assay [1] is 100 to 300 nM; in assay [2], below 0.5 µM; in assay [3] it was below 0.5 µM; in assay [4], below 30 nM; in assay [5] it was at least 5 µM.

Regarding `COc1ccccc1NC(=O)Nc1ccc(C)c(N2Cc3cnc(Nc4cnn(C)c4)nc3N(C)C2=O)c1` [Compound No. 12, 1-(2-methoxyphenyl)-3-(4-methyl-3-(1-methyl-7-((1-methy-1H-pyrazol-4-yl)amino)-2-oxo-1,4-dihydropyrimido[4,5-d]pyrimidin-3(2H)-yl)phenyl)urea], the GI50 was below 30 nM in assay [1]; below 0.5 µM in assay [2]; below 0.5 µM in assay [3]; below 30 nM in assay [4]; at least 5 µM in assay [5].

Regarding `Cc1ccc(Nc2ncc3c(n2)N(C)C(=O)N(c2cc(NC(=O)Nc4ccccc4C(F)(F)F)ccc2C)C3)cn1` [Compound No. 4, 1-(4-methyl-3-(1-methyl-7-((6-methylpyridin-3-yl)amino)-2-oxo-1,4-dihydropyrimido[4,5-d]pyrimidin-3(2H)-yl)phenyl)-3-(2-(trifluoromethyl)phenyl)urea], the GI50 in assay [1] is at least 300 nM; in assay [2] it was 0.5 to 3 µM; in assay [3], below 0.5 µM; in assay [4] it was below 30 nM; in assay [5] it was at least 5 µM.

In the case of `CCN1CCN(c2ccc(Nc3ncc4c(n3)N(C)C(=O)N(c3cc(NC(=O)Nc5ccccc5OC)ccc3C)C4)cn2)CC1` [Compound No. 17, 1-(3-(7-((6-(4-ethylpiperazin-1-yl)pyridin-3-yl)amino)-1-methyl-2-oxo-1,4-dihydropyrimido[4,5-d]pyrimidin-3(2H)-yl)-4-methylphenyl)-3-(2-methoxyphenyl)urea], the GI50 is below 30 nM in assay [1]; below 0.5 µM in assay [2]; below 0.5 µM in assay [3]; below 30 nM in assay [4]; 0.5 to 3 µM in assay [5].

For the compound `Cc1ccc(Nc2ncc3c(n2)N(C)C(=O)N(c2cc(NC(=O)Nc4ccccc4OC(F)(F)F)ccc2C)C3)cn1` [Compound No. 3, 1-(4-methyl-3-(1-methyl-7-((6-methylpyridin-3-yl)amino)-2-oxo-1,4-dihydropyrimido[4,5-d]pyrimidin-3(2H)-yl)phenyl)-3-(2-(trifluoromethoxy)phenyl)urea], the GI50 in assay [1] was at least 300 nM; in assay [2], 3 to 5 µM; in assay [3] it was 0.5 to 3 µM; in assay [4], below 30 nM; in assay [5], at least 5 µM.

Take `COc1cccc(NC(=O)Nc2ccc(C)c(N3Cc4cnc(Nc5ccc(C)nc5)nc4N(C)C3=O)c2)c1` [Compound No. 8, 1-(3-methoxyphenyl)-3-(4-methyl-3-(1-methyl-7-((6-methylpyridin-3-yl)amino)-2-oxo-1,4-dihydropyrimido[4,5-d]pyrimidin-3(2H)-yl)phenyl)urea]: the GI50 in assay [1] was 30 to 100 nM; in assay [2] it was below 0.5 µM; in assay [3] it was 0.5 to 3 µM; in assay [4], below 30 nM; in assay [5], at least 5 µM.

As for `CCN1CCN(c2ccc(Nc3ncc4c(n3)N(C)C(=O)N(c3cc(NC(=O)Nc5ccccc5OC)ccc3C)C4)cc2)CC1` [Compound No. 11, 1-(3-(7-((4-(4-ethylpiperazin-1-yl)phenyl)amino)-1-methyl-2-oxo-1,4-dihydropyrimido[4,5-d]pyrimidin-3(2H)-yl)-4-methylphenyl)-3-(2-methoxyphenyl)urea], the GI50 in assay [1] is below 30 nM; in assay [2] it was below 0.5 µM; in assay [3] it was below 0.5 µM; in assay [4] it was below 30 nM; in assay [5], 0.5 to 3 µM.

On to `Cc1ccc(Nc2ncc3c(n2)N(C)C(=O)N(c2cc(NC(=O)Nc4ccc(Cl)c(C(F)(F)F)c4)ccc2C)C3)cn1` [Compound No. 9, 1-(4-chloro-3-(trifluoromethyl)phenyl)-3-(4-methyl-3-(1-methyl-7-((6-methylpyridin-3-yl)amino)-2-oxo-1,4-dihydropyrimido[4,5-d]pyrimidin-3(2H)-yl)phenyl)urea], for which the GI50 in assay [1] is 100 to 300 nM; in assay [2] it was 0.5 to 3 µM; in assay [3] it was below 0.5 µM; in assay [4], 30 to 100 nM; in assay [5], at least 5 µM.

For `COc1ccc(NC(=O)Nc2ccc(C)c(N3Cc4cnc(Nc5ccc(C)nc5)nc4N(C)C3=O)c2)cc1` [Compound No. 10, 1-(4-methoxyphenyl)-3-(4-methyl-3-(1-methyl-7-((6-methylpyridin-3-yl)amino)-2-oxo-1,4-dihydropyrimido[4,5-d]pyrimidin-3(2H)-yl)phenyl)urea], the GI50 is 30 to 100 nM in assay [1]; below 0.5 µM in assay [2]; below 0.5 µM in assay [3]; 30 to 100 nM in assay [4]; at least 5 µM in assay [5].

Consider `COc1ccccc1NC(=O)Nc1ccc(C)c(N2Cc3cnc(Nc4ccc(N5CCC(C(N)=O)CC5)nc4)nc3N(C)C2=O)c1` [Compound No. 18, 1-(5-((6-(5-(3-(2-methoxyphenyl)ureido)-2-methylphenyl)-8-methyl-7-oxo-5,6,7,8-tetrahydropyrimido[4,5-d]pyrimidin-2-yl)amino)pyridin-2-yl)piperidin-4-carboxamide], for which the GI50 in assay [1] was below 30 nM; in assay [2], below 0.5 µM; in assay [3], below 0.5 µM; in assay [4], 30 to 100 nM; in assay [5], at least 5 µM.

For `Cc1ccc(Nc2ncc3c(n2)N(C)C(=O)N(c2cc(NC(=O)Nc4ccccc4)ccc2C)C3)cn1` [Compound No. 2, 1-(4-methyl-3-(1-methyl-7-((6-methylpyridin-3-yl)amino)-2-oxo-1,4-dihydropyrimido[4,5-d]pyrimidin-3(2H)-yl)phenyl)-3-phenylurea], the GI50 in assay [1] was 100 to 300 nM; in assay [2] it was 0.5 to 3 µM; in assay [3], 0.5 to 3 µM; in assay [4], below 30 nM; in assay [5], at least 5 µM.

Turning to `Cc1ccc(Nc2ncc3c(n2)N(C)C(=O)N(c2cc(NC(=O)Nc4cccc(Cl)c4Cl)ccc2C)C3)cn1` [Compound No. 6, 1-(2,3-dichlorophenyl)-3-(4-methyl-3-(1-methyl-7-((6-methylpyridin-3-yl)amino)-2-oxo-1,4-dihydropyrimido[4,5-d]pyrimidin-3(2H)-yl)phenyl)urea], the GI50 is 100 to 300 nM in assay [1]; 0.5 to 3 µM in assay [2]; below 0.5 µM in assay [3]; below 30 nM in assay [4]; at least 5 µM in assay [5].
